What all share (format): biochemical
In one test the target is T1, BRSK2 (Homo sapiens, UniProt Q8IWQ3).
T1 sequence (Q8IWQ3 1-736): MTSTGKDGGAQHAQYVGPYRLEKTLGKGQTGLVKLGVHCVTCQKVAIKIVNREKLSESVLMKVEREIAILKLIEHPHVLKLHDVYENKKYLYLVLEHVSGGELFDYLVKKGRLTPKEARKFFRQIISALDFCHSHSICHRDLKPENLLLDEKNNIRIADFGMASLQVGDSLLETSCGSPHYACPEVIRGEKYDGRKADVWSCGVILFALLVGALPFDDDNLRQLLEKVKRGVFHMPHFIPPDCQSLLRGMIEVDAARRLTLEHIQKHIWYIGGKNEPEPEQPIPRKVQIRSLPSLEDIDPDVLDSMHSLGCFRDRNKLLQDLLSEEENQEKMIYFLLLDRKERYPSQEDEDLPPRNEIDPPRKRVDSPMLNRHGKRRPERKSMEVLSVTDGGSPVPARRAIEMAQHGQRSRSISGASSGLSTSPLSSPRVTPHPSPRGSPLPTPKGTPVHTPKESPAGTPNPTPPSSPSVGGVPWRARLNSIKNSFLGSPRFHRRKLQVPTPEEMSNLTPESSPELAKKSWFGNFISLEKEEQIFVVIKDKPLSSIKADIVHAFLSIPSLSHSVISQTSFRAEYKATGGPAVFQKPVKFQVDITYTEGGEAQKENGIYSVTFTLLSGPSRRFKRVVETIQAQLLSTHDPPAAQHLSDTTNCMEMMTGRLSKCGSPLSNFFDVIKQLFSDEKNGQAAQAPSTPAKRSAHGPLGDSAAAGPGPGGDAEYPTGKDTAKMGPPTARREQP
In words: Kinase profiling BRSK2. The note with it: for remaining activity at 100 µM: read-out: residual kinase activity, BRSK2. From the text:
(§1) Any value less that 25 is considered to be highly significant inhibition.

A further test addresses MELK (Homo sapiens, UniProt Q14680). The experiment in a line: Kinase profiling MELK. The note with it: for remaining activity at 100 µM: read-out: residual kinase activity, MELK.
Source text: as §1

In another test the target is HIPK1 (Homo sapiens, UniProt Q86Z02). The experiment in a line: Kinase profiling HIPK1. The following applies: for remaining activity at 100 µM: read-out: residual kinase activity, HIPK1.
Chain of HIPK1 (Q86Z02 whole entry, species assumed): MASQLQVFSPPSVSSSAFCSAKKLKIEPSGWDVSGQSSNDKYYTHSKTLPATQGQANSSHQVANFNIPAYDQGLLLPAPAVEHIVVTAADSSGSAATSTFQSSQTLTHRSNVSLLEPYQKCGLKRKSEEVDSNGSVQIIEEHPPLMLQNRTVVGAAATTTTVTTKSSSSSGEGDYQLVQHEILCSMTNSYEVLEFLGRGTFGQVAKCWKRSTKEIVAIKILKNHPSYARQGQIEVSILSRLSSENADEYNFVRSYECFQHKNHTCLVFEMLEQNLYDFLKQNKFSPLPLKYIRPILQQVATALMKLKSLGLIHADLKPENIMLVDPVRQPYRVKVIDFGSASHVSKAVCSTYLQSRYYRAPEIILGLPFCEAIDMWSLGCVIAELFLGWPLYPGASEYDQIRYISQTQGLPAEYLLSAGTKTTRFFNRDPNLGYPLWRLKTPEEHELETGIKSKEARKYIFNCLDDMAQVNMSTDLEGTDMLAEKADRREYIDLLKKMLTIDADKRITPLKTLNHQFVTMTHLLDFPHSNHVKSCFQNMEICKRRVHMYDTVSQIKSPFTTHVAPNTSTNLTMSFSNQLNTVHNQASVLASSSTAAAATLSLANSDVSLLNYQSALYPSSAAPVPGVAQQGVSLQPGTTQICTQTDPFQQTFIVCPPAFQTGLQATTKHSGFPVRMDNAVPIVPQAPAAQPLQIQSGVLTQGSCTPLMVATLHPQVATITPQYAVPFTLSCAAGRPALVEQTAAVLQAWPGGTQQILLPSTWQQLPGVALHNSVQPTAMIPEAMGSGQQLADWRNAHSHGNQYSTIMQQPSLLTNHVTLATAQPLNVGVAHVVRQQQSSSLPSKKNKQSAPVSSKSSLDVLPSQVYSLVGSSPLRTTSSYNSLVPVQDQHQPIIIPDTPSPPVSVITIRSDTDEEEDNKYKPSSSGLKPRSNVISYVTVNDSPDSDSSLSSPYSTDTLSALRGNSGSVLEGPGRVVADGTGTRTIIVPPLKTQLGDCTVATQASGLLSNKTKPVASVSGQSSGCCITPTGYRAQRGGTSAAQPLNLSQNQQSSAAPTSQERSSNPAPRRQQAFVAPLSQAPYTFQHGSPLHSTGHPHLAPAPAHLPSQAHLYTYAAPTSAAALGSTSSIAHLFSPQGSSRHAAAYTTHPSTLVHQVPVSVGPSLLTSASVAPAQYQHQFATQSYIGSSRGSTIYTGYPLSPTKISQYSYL
Source text: as §1

The next test has as its target DYRK1A (Homo sapiens, UniProt Q13627). In words: Determination of IC50 values against DYRK1a. The note with it: average of duplicate; 10 concentrations 100 μM to 0.003 μM; read-out: IC 50 against DYRK1a. As for the experimental part:
The kinase assay was carried out using Multidrop 384's at room temperature in a total assay volume of 25.5 μl. To plates containing 0.5 μl of compounds, DMSO controls or acid blanks, 15 μl of an enzyme mix containing the DYRK1a enzyme and peptide/protein substrate in buffer was added. Compounds were pre-incubated in the presence of the enzyme and peptide/protein substrate for 5 minutes before initiation of the reaction by addition of 10 μl of ATP (final concentration selected for each kinase at 5, 20 or 50 μM). Assays were carried out for 30 minutes at room temperature before termination by the addition of 5 μl orthophosphoric acid. The assay plates were then harvested onto P81 Unifilter Plates by a Packard Harvester (wash buffer is 50 mM orthophosphoric acid) and dried in air. The dry Unifilter plates were then sealed by the addition of MicroScint O and counted in Packard Topcount NXT scintillation counters.

Where [1] appears, read: 100 micromolar inhibitor concentration, 100 is no change.
Where [2] appears, read: 100 micromolar inhibitor, 100 = no change.

Molecules are shown by their SMILES. Like-named read-outs stand apart in the source and are kept apart here.

Chain of MELK (Q14680 whole entry, species assumed): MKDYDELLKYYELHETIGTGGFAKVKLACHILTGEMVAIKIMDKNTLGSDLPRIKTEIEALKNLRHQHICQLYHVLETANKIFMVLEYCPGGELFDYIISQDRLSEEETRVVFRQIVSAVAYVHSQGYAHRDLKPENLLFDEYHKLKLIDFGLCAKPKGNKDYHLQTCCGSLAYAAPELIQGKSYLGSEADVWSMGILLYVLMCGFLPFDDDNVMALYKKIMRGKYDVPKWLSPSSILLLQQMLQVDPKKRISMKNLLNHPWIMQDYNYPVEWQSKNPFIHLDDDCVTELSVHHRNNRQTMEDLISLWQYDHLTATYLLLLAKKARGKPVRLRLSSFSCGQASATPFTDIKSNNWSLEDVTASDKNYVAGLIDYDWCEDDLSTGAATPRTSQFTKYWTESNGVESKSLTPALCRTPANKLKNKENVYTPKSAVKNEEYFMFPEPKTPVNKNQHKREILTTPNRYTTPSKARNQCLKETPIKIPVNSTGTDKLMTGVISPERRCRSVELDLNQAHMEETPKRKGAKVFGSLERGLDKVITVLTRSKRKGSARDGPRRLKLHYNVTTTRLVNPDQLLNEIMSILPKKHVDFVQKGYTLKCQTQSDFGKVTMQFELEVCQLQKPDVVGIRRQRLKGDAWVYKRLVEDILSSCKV

As to `CC(=O)Nc1nc2cc(O)ccc2s1` [Compound 01-66, N-(5-hydroxybenzo[d]thiazol-2-yl)acetamide], the remaining activity at 100 µM at BRSK2 came out at 56%; on MELK, 17%; at HIPK1, 97%. On DYRK1A, the IC50 is 800 nM.

In the case of `CC(=O)Nc1nc2ccc(O)cc2s1` [Compound 01-71], the remaining activity at 100 µM turned out to be 22% on BRSK2 (setting [1]), 24% at MELK (setting [1]) and 76% on HIPK1 (setting [1]). Further, the IC50 on DYRK1A came to 28100 nM.

Regarding `CC(=O)Nc1nc2ccc(C(F)(F)F)cc2s1` [Compound 01-90], the remaining activity at 100 µM was found to be 64% on BRSK2 (setting [1]), 49% at MELK (setting [1]) and 48% on HIPK1 (setting [1]). Moreover, the IC50 on DYRK1A turned out to be 1100 nM.

`CC(=O)Nc1nc2ccc(C#N)cc2s1` [Compound 01-94]: the remaining activity at 100 µM on BRSK2 (setting [1]) was found to be 67%; at MELK (setting [1]) it was 34%; at HIPK1 (setting [1]), 37%. For the same molecule, the IC50 at DYRK1A came to 1300 nM.

In the case of `CC(=O)Nc1cccc(NC(=O)c2nc3ccc(O)cc3s2)c1` [Compound 03-07, N-(3-acetamidophenyl)-6-hydroxybenzo[d]thiazole-2-carboxamide], the remaining activity at 100 µM at BRSK2 (setting [2]) was determined as 66%; at MELK (setting [2]) it was 12%; on HIPK1 (setting [2]), 90%.

With `O=C(Nc1nc2cc(O)ccc2s1)c1ccncc1` [Compound 03-11], the “residual kinase activity, BRSK2” value at BRSK2 (setting [1]) worked out at 81. The “residual kinase activity, MELK” value on MELK (setting [1]) is listed as 48. The “residual kinase activity, HIPK1” value on HIPK1 (setting [1]) turned out to be 75.

Turning to `O=C(Nc1nc2ccc(O)cc2s1)c1ccccn1` [Compound 03-12], at BRSK2 (setting [1]), the “residual kinase activity, BRSK2” value stood at 79. Also, the “residual kinase activity, MELK” value at MELK (setting [1]) is 31. In addition, at HIPK1 (setting [1]), the “residual kinase activity, HIPK1” value is listed as 47.

`O=C(Nc1nc2cc(O)ccc2s1)c1ccccn1` [Compound 03-13]: the “residual kinase activity, BRSK2” value at BRSK2 (setting [1]) is listed as 80. For the same molecule, at MELK (setting [1]), the “residual kinase activity, MELK” value turned out to be 22. Moreover, the “residual kinase activity, HIPK1” value on HIPK1 (setting [1]) is on record as 76.

In the case of `COc1ccc2sc(NC(C)=O)nc2c1` [Compound 03-21], the remaining activity at 100 µM is 95% on BRSK2 (setting [1]), 44% at MELK (setting [1]) and 39% at HIPK1 (setting [1]). Further, the IC50 on DYRK1A worked out at 400 nM.

Consider `CC(=O)Nc1nc2ccccc2s1` [Compound 03-32], for which the “residual kinase activity, BRSK2” value at BRSK2 (setting [1]) is listed as 91. Further, the “residual kinase activity, MELK” value on MELK (setting [1]) is listed as 83. Also, the “residual kinase activity, HIPK1” value on HIPK1 (setting [1]) is 62.

For the molecule `O=C(Nc1nc2cc(O)ccc2s1)c1cccnc1` [Compound 03-33], at BRSK2 (setting [1]), the “residual kinase activity, BRSK2” value amounted to 82. Further, on MELK (setting [1]), the “residual kinase activity, MELK” value came out at 29. Moreover, the “residual kinase activity, HIPK1” value at HIPK1 (setting [1]) came to 41.

`O=C(Nc1nc2ccc(O)cc2s1)c1ccccc1` [Compound 03-60]: the “residual kinase activity, BRSK2” value at BRSK2 (setting [1]) is 34. Besides, the “residual kinase activity, MELK” value at MELK (setting [1]) is 18. In addition, at HIPK1 (setting [1]), the “residual kinase activity, HIPK1” value was 9.

As to `CC(=O)Nc1nc2cc(C(F)(F)F)ccc2s1` [Compound 03-73], the remaining activity at 100 µM on BRSK2 (setting [1]) worked out at 98%; at MELK (setting [1]), 91%; on HIPK1 (setting [1]), 74%. The IC50 on DYRK1A was 26500 nM.

For `CC(=O)Nc1nc2cc(C)ccc2s1` [Compound 03-76], the “residual kinase activity, BRSK2” value on BRSK2 (setting [1]) is recorded as 79. Further, the “residual kinase activity, MELK” value at MELK (setting [1]) worked out at 58. Moreover, on HIPK1 (setting [1]), the “residual kinase activity, HIPK1” value amounted to 53.

For `CC(=O)Nc1nc2cc(F)ccc2s1` [Compound 03-77], the remaining activity at 100 µM amounted to 77% on BRSK2 (setting [1]), 67% on MELK (setting [1]) and 40% at HIPK1 (setting [1]). Further, at DYRK1A, the IC50 came to 3900 nM.

For the molecule `CC(=O)Nc1nc2ccc(F)cc2s1` [Compound 03-94], at DYRK1A, the IC50 came out at 23600 nM.

As to `O=C(Nc1nc2ccc(O)cc2s1)c1ccncc1` [Compound 08-42], on BRSK2 (setting [1]), the “residual kinase activity, BRSK2” value amounted to 74. For the same molecule, the “residual kinase activity, MELK” value on MELK (setting [1]) came to 22. The “residual kinase activity, HIPK1” value at HIPK1 (setting [1]) is on record as 44.

As for `O=C(Nc1nc2ccc(O)cc2s1)c1cccnc1` [Compound 08-44], the “residual kinase activity, BRSK2” value at BRSK2 (setting [1]) is 52. Moreover, the “residual kinase activity, MELK” value on MELK (setting [1]) was determined as 29. The “residual kinase activity, HIPK1” value on HIPK1 (setting [1]) came to 43.

Take `CC(=O)Nc1nc2ccc([N+](=O)[O-])cc2s1` [Compound 13-10]: on DYRK1A, the IC50 came to 700 nM.

Source of the values: patent publication US10231954B2, “Neurodegenerative therapies” (LYTIX BIOPHARMA AS, priority 2014, dated 2019).
